According to patent US9850227B2 (YUHAN CORPORATION, priority 2011, dated 2017):
Where a name gives a salt, the structure may show the parent alone.

Molecular target: T1, human 5-HT4(a) (Homo sapiens, UniProt Q13639)
T1 construct: host or cells: GeneBIAzer HTR4-CRE-bla CHO-K1 cells
Experiment: Evaluation of agonistic activity in CHO-K1 cells expressing human 5-HT4(a) (GeneBIAzer HTR4-CRE-bla CHO-K1 cells, beta-lactamase fluorescence ratio, EC50 from 8 concentrations)
Format: cell-based
Summary of the method: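 HTR4-CRE-bla CHO-K1 cells (10^4 per well, overnight in 1% FBS medium) exposed to compound for 5 h, then beta-lactamase substrate 2 h in the dark. Fluorescence ratio at 465/535 nm after 410 nm excitation; EC50 by non-linear regression over 8 concentrations.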

T1 sequence (Q13639 1-387 isoform Q13639-2): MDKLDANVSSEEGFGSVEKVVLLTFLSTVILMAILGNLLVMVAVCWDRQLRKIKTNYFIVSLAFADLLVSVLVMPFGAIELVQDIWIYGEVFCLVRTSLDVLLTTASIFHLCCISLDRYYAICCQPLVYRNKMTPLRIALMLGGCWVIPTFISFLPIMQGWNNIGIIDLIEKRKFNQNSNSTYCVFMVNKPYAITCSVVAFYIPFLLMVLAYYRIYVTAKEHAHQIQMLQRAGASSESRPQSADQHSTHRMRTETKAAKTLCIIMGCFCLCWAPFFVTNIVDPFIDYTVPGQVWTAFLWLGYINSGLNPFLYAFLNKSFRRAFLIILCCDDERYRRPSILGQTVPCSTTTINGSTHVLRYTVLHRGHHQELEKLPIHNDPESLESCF

| EC50 | Structure (SMILES) |
| --- | --- |
| 0.047 nM | CCCc1cc(N2CCC[C@@H](NC)C2)nc(Nc2ccc(C)c(N)c2)n1 [Example 310, (R)-4-methyl-N^1-{4-[3-(methylamino)piperidin-1-yl]-6-propylpyrimidin-2-yl}benzene-1,3-diamine] |
| 0.0026 nM | CCCCc1cc(N2CCC[C@@H](NC)C2)nc(Nc2ccc(C)c(C#N)c2)n1 [Example 311, (R)-5-({4-butyl-6-[3-(methylamino)piperidin-1-yl]pyrimidin-2-yl}amino)-2-methylbenzonitrile] |
| 0.014 nM | CCCCc1cc(N2CCC[C@@H](NC)C2)nc(Nc2ccc(F)c(C#N)c2)n1 [Example 312, (R)-5-({4-butyl-6-[3-(methylamino)piperidin-1-yl]pyrimidin-2-yl}amino)-2-fluorobenzonitrile] |
| 0.005 nM | CCCCc1cc(N2CCC[C@@H](NC)C2)nc(Nc2cc(N)cc(C(F)(F)F)c2)n1 [Example 313, (R)—N^1-{4-butyl-6-[3-(methylamino)piperidin-1-yl]pyrimidin-2-yl}-5-(trifluoromethyl)benzene-1,3-diamine] |
| 0.0019 nM | CCCCc1cc(N2CCC[C@@H](NC)C2)nc(Nc2ccc(N)c(C(F)(F)F)c2)n1 [Example 314, (R)—N^1-{4-butyl-6-[3-(methylamino)piperidin-1-yl]pyrimidin-2-yl}-3-(trifluoromethyl)benzene-1,4-diamine] |
| 0.0012 nM | CCCCc1cc(N2CCC[C@@H](NC)C2)nc(Nc2cc(N)cc(C#N)c2)n1 [Example 315, (R)-3-amino-5-({4-butyl-6-[3-(methylamino)piperidin-1-yl]pyrimidin-2-yl}amino)benzonitrile] |
| 0.0067 nM | CCCCc1cc(N2CCC[C@@H](NC)C2)nc(Nc2ccc(N)c(C#N)c2)n1 [Example 316, (R)-2-amino-5-({4-butyl-6-[3-(methylamino)piperidin-1-yl]pyrimidin-2-yl}amino)benzonitrile] |
| 0.0066 nM | CCCCc1cc(N2CCC[C@@H](NC)C2)nc(Nc2ccc(F)c(N)c2)n1 [Example 317, (R)—N^1-{4-butyl-6-[3-(methylamino)piperidin-1-yl]pyrimidin-2-yl}-4-fluorobenzene-1,3-diamine] |
| 0.025 nM | CCCCc1cc(N2CCC[C@@H](NC)C2)nc(Nc2ccc(C)c(OC)c2)n1 [Example 318, (R)-4-butyl-N-(3-methoxy-4-methylphenyl)-6-[3-(methylamino)piperidin-1-yl]pyrimidin-2-amine] |
| 0.0047 nM | CCCCc1cc(N2CCC[C@@H](NC)C2)nc(Nc2ccc(C)c(N)c2)n1 [Example 319, (R)—N^1-{4-butyl-6-[3-(methylamino)piperidin-1-yl]pyrimidin-2-yl}-4-methylbenzene-1,3-diamine] |
| 0.018 nM | CCCCc1cc(N2CCC[C@@H](NC)C2)nc(Nc2ccc(F)c(C(F)(F)F)c2)n1 [Example 320, (R)-4-butyl-N-[4-fluoro-3-(trifluoromethyl)phenyl]-6-[3-(methylamino)piperidin-1-yl]pyrimidin-2-amine] |
| 0.0031 nM | CCCc1cc(N2CCC[C@@H](NC)C2)nc(Nc2ccc(N)c([N+](=O)[O-])c2)n1 [Example 321, (R)—N^1-{4-[3-(methylamino)piperidin-1-yl]-6-propylpyrimidin-2-yl}-3-nitrobenzene-1,4-diamine dihydrochloride] |
| 0.243 nM | CCCc1cc(N2CCC[C@@H](NC)C2)nc(Nc2ccc(C)c(C)c2)n1 [Example 322, (R)—N-(3,4-dimethylphenyl)-4-[3-(methylamino)piperidin-1-yl]-6-propylpyrimidin-2-amine] |
| 0.416 nM | CCCc1cc(N2CCC[C@@H](NC)C2)nc(Nc2ccc(C)c(F)c2)n1 [Example 323, (R)—N-(3-fluoro-4-methylphenyl)-4-[3-(methylamino)piperidin-1-yl]-6-propylpyrimidin-2-amine] |
| 0.0087 nM | CCCc1cc(N2CCC[C@@H](NC)C2)nc(Nc2ccc(C)c(C(F)(F)F)c2)n1 [Example 324, (R)—N-[4-methyl-3-(trifluoromethyl)phenyl]-4-[3-(methylamino)piperidin-1-yl]-6-propylpyrimidin-2-amine] |
| 0.0029 nM | CCCCc1cc(N2CCC[C@@H](NC)C2)nc(Nc2ccc(N)c([N+](=O)[O-])c2)n1 [Example 328, (R)—N^1-{4-butyl-6-[3-(methylamino)piperidin-1-yl]pyrimidin-2-yl}-3-nitrobenzene-1,4-diamine dihydrochloride] |
| 0.054 nM | CCCCc1cc(N2CCC[C@@H](NC)C2)nc(Nc2cccc(C#N)c2)n1 [Example 329, (R)-3-({4-butyl-6-[3-(methylamino)piperidin-1-yl]pyrimidin-2-yl}amino)benzonitrile] |
| 0.086 nM | CCCCc1cc(N2CCC[C@@H](NC)C2)nc(Nc2ccc(C)c(C)c2)n1 [Example 330, (R)-4-butyl-N-(3,4-dimethylphenyl)-6-[3-(methylamino)piperidin-1-yl]pyrimidin-2-amine] |

| EC50 | Structure (SMILES) |
| --- | --- |
| 0.218 nM | CCCCc1cc(N2CCC[C@@H](NC)C2)nc(Nc2ccc(C)c(F)c2)n1 [Example 331, (R)-4-butyl-N-(3-fluoro-4-methylphenyl)-6-[3-(methylamino)piperidin-1-yl]pyrimidin-2-amine] |
| 0.017 nM | CCCCc1cc(N2CCC[C@@H](NC)C2)nc(Nc2ccc(C)c(C(F)(F)F)c2)n1 [Example 332, (R)-4-butyl-N-[4-methyl-3-(trifluoromethyl)phenyl]-6-[3-(methylamino)piperidin-1-yl]pyrimidin-2-amine] |
| 0.132 nM | CCCCc1cc(N2CCC[C@@H](NC)C2)nc(Nc2ccc(OC)c(N)c2)n1 [Example 333, (R)—N^1-{4-butyl-6-[3-(methylamino)piperidin-1-yl]pyrimidin-2-yl}-4-methoxybenzene-1,3-diamine] |
| 0.006 nM | CCCCc1cc(N2CCC[C@@H](N)C2)nc(Nc2ccc(N)c([N+](=O)[O-])c2)n1 [Example 337, (R)—N^1-[4-(3-aminopiperidin-1-yl)-6-butylpyrimidin-2-yl]-3-nitrobenzene-1,4-diamine dihydrochloride] |
| 0.014 nM | CCCCc1cc(N2CCC[C@@H](N)C2)nc(Nc2ccc(F)c([N+](=O)[O-])c2)n1 [Example 338, (R)-4-(3-aminopiperidin-1-yl)-6-butyl-N-(4-fluoro-3-nitrophenyl)pyrimidin-2-amine] |
| 0.017 nM | CCCCc1cc(N2CCC[C@@H](N)C2)nc(Nc2ccc(C)c([N+](=O)[O-])c2)n1 [Example 339, (R)-4-(3-aminopiperidin-1-yl)-6-butyl-N-(4-methyl-3-nitrophenyl)pyrimidin-2-amine] |
| 0.112 nM | CCCCc1cc(N2CCC[C@@H](N)C2)nc(Nc2ccc(N)c(C(F)(F)F)c2)n1 [Example 340, (R)—N^1-[4-(3-aminopiperidin-1-yl)-6-butylpyrimidin-2-yl]-3-(trifluoromethyl)benzene-1,4-diamine] |
| 0.0041 nM | CCCCc1cc(N2CCC[C@@H](N)C2)nc(Nc2cc(N)cc(C#N)c2)n1 [Example 342, (R)-3-amino-5-{[4-(3-aminopiperidin-1-yl)-6-butylpyrimidin-2-yl]amino}benzonitrile] |
| 0.034 nM | CCCCc1cc(N2CCC[C@@H](N)C2)nc(Nc2ccc(C)c(C(F)(F)F)c2)n1 [Example 343, (R)-4-(3-aminopiperidin-1-yl)-6-butyl-N-[4-methyl-3-(trifluoromethyl)phenyl]pyrimidin-2-amine] |
| 0.448 nM | CCCCc1cc(N2CCC[C@@H](N)C2)nc(Nc2ccc(C)c(F)c2)n1 [Example 344, (R)-4-(3-aminopiperidin-1-yl)-6-butyl-N-(3-fluoro-4-methylphenyl)pyrimidin-2-amine] |
| 0.08 nM | CCCCc1cc(N2CCC[C@@H](N)C2)nc(Nc2ccc(C)c(OC)c2)n1 [Example 345, (R)-4-(3-aminopiperidin-1-yl)-6-butyl-N-(3-methoxy-4-methylphenyl)pyrimidin-2-amine] |
| 0.135 nM | CCCCc1cc(N2CCC[C@@H](N)C2)nc(Nc2ccc(C)c(N)c2)n1 [Example 346, (R)—N^1-[4-(3-aminopiperidin-1-yl)-6-butylpyrimidin-2-yl]-4-methylbenzene-1,3-diamine] |
| 0.391 nM | CCCCc1cc(N2CCC[C@@H](N)C2)nc(Nc2ccc(C)c(C)c2)n1 [Example 347, (R)-4-(3-aminopiperidin-1-yl)-6-butyl-N-(3,4-dimethylphenyl)pyrimidin-2-amine] |
| 0.102 nM | CCCCc1cc(N2CCC[C@@H](N)C2)nc(Nc2ccc(F)c(C(F)(F)F)c2)n1 [Example 348, (R)-4-(3-aminopiperidin-1-yl)-6-butyl-N-[4-fluoro-3-(trifluoromethyl)phenyl]pyrimidin-2-amine] |
| 0.014 nM | CCCCc1cc(N2CCC[C@@H](N)C2)nc(Nc2ccc(F)c(N)c2)n1 [Example 349, (R)—N^1-[4-(3-aminopiperidin-1-yl)-6-butylpyrimidin-2-yl]-4-fluorobenzene-1,3-diamine] |
| 0.028 nM | CCCCc1cc(N2CCC[C@@H](N)C2)nc(Nc2ccc(N)c(C#N)c2)n1 [Example 350, (R)-2-amino-5-{[4-(3-aminopiperidin-1-yl)-6-butylpyrimidin-2-yl]amino}benzonitrile] |
| 0.029 nM | CCCCc1cc(N2CCC[C@@H](N)C2)nc(Nc2ccc(N)cc2)n1 [Example 352, (R)—N^1-[4-(3-aminopiperidin-1-yl)-6-butylpyrimidin-2-yl]benzene-1,4-diamine] |
| 0.337 nM | CCCCc1cc(N2CCC[C@@H](N)C2)nc(Nc2ccc(Cl)c([N+](=O)[O-])c2)n1 [Example 353, (R)-4-(3-aminopiperidin-1-yl)-6-butyl-N-(4-chloro-3-nitrophenyl)pyrimidin-2-amine] |
